Test system: TU-2449 tumors
Assay: HPLC analysis of 5-FC and 5-FU in excised TU-2449 tumors
Format: in vivo, mice
Conditions: Groups 2 and 3: PBS instead of vector, 5-FC 250 or 500 mg/kg IP
Description: The study consisted of 6 groups of female mice (see Table below). All groups underwent intracranial administration into the right striatum of 1E4 TU-2449 cells administered/mouse on Day 0. At Day 4, all groups received intracranial/intratumoral administration of AC3-YCD2 (V) vector at 2.4E6 TU/5 ul (Lot#T511019) or PBS buffer control.
AC3-yCD2 (V) (5 μL) was infused at 0.33 μL per minute (15 minutes, followed by a hold of 5 minutes) intracranially at the same coordinates as TU-2449 cells were injected.
From each brain, tumors were isolated and trimmed if large enough for multiple analyses (more than 0.05 g). Tumors sections for HPLC analysis were crushed in a 1.5 mL centrifuge tube using a plunger from a 1 mL syringe. Crushed samples were mixed with 150 uL RIPA buffer and vortexed vigorously for 10 minutes. Samples were spun at 4° C. at 20000 rcf for 10 minutes. Supernatants were removed and mixed thoroughly with 150 uL of 10% trichloroacetic acid and spun as above. […] Data was expressed in relative milli absorbance units (mAU) of peak area from the chromatograms.

## Nc1nc(=O)[nH]cc1F [5-FC, 5-fluorocytosine]
  5-FC and 5-FU HPLC signals in tumor: detectable 5-FC signals but no signal for 5-FU

Source: patent publication US8722867B2, “Gene therapy vectors and cytosine deaminases” (priority 2008, dated 2014)
